In patent US20050271739A1, “Methods and compositions for accelerating alcohol metabolism” (priority 2004, published 2005):
Where “and” joins values, the source holds several entries; their conditions need not be identical. Equal values may be shown once.

Legend:
[1] = tested on: alcohol dehydrogenase; assay: Effect of thyroxine analogues on alcohol dehydrogenase activity; format: biochemical; details: for Relative Increase (%): None = 100
[2] = tested on: alcohol dehydrogenase; assay: Effect of hormonal compounds on enzyme activity of alcohol dehydrogenase; format: biochemical; parameters: Relative activity (%): concentration or dose not given beside the values; details: for Relative activity (%): Control = 100.0
[3] = tested on: blood alcohol; assay: In vivo test of alcohol metabolism by dog (blood alcohol reading)
Method: Dog body weight: 13.9 kilograms. 42 grams of alcohol was administrated at time 0. ●—Control (i.e., no further treatment in the first 5 hours); ▪—10 grams pyruvate was administrated orally at 5 hours; ▴ 10 grams of alanine was administrated at 1.5 hour and then 5 hours.
In this example, the effectiveness of using compositions described above for accelerating alcohol metabolism was validated by in vivo tests with dogs. Six dogs (as described in Table 9) were used in the in vivo tests. The dogs were fasted 12 to 16 hours and then given 20% alcohol orally in a dose of 3 g/kg body weight. Approximately 1.5 hours were allowed for complete absorption and distribution of the alcohol. Blood samples were taken from the leg veins. The blood alcohol reading (BAR) was determined by measuring alcohol concentration in blood using the Sigma Aldrich alcohol assay method (Assay No. 333).

[4] = tested on: oxidation of ethanol and acetaldehyde; assay: Absorbance change of pig liver extract without INT (340 nm) and with INT (500 nm); format: biochemical; details: animal glandular extract, in the presence of INT
Method: Phosphate buffer: 0.05 M (pH=7.5); INT: 12.7 mM; ethanol: 1.0% (V/V); aldehyde: 17.6 mM. No NAD was added.
As described in testing method f, in the presence of diaphorases, INT is reduced to forzaman, while NADH is oxidized to NAD in a 1:1 mole stoichiometric ratio. Therefore, the increase in the absorbance at 500 nm is directly proportional to the concentration of forzaman.
FIG. 3 and Table 4 show the change of absorbance at 500 nm versus time. […] Since NAD and NADH are high very difficult to purify, the costs of use of external high purity NAD has been proven to be prohibitively high. The present invention provides a cost-effective method for preparing the enzyme-coenzyme formulation.

[5] = blood alcohol reading; cited from earlier work
[6] = tested on: Alcohol dehydrogenase (from Sigma Aldrich Chemical Company); assay: Alcohol dehydrogenase activity vs. NAD concentration; format: biochemical; details: Tris Buffer pH 8.5, ethanol 3% (V/V), ADH 5 units, 340 nm
Method: Testing conditions: 0.05 M Tris Buffer (pH=8.5); ethanol=3% (V/V); Alcohol dehydrogenase (from Sigma Aldrich Chemical Company): 5 units. ADH activity was determined by measuring absorbance change at 340 nm.

[7] = tested on: alcohol dehydrogenase prepared from yeast extract; assay: NAD regeneration through coupling reactions with yeast extract ADH, INT and diaphorase; format: biochemical; details: 0.5 mM and 2.0 mM NAD, ethanol 1.0% (V/V), pH 7.5
Method: Phosphate buffer: 0.05 M (pH=7.5); ethanol: 1.0% (V/V). There was no absorbance change in the absence of NAD.
Phosphate buffer: 0.05 M (pH=7.5); INT: 12.7 mM; ethanol: 1.0% (V/V); NAD=2.0 mM; Diaphorase: 2 units.
In this example, the INT system was selected to illustrate the effectiveness of the regeneration of NAD by coupling compounds, since the reaction product, i.e., formazan, gives a maximum absorbance at 500 nm. Then the coupling reactions (see FIG. 6) can be directly quantified by spectrophotometric measurements.

[8] = tested on: malate-aspartate shuttle in rabbit liver mitochondria; assay: NADH oxidation by malate-aspartate shuttle in liver mitochondria; format: biochemical; details: for Effect on oxidation of NADH: added to rabbit liver mitochondria
[9] = tested on: aldehyde dehydrogenase; assay: Thyroxine stimulation of aldehyde dehydrogenase activity; format: biochemical
Text: Thyroxine has extremely high stimulating effect on the enzyme activity of alcohol dehydrogenases and aldehyde dehydrogenases. […] Some are as twice effective as thyroxine at the same concentration.

[10] = average of the dog tests, 5 or 10 g

Molecule | Absorbance Change (units/min @ 340 nm) ([1]; Dosage 17 μM) | Relative Increase (%) ([1]; Dosage 17 μM) | Relative activity (%) [2] | further results
O=C(O)CCc1ccc(Oc2cc(I)c(O)c(I)c2)c(I)c1 [3,3′5′-triiodothyropropionic acid] | 0.865 units/min | 865% |  | 
C[C@]12CCC(=O)C=C1CC[C@@H]1[C@@H]2CC[C@]2(C)C(=O)CC[C@@H]12 [4-Androsterone-3,17-dione] |  |  | 128% | 
CC12CCC(=O)C=C1CCC1C2CCC2(C)C(O)CCC12 (centres unmarked) [Testerone] |  |  | 137% | 
C[C@]12CC[C@H]3[C@@H](CCC4=CC(=O)CC[C@@]43C)[C@@H]1CC[C@@H]2C(=O)CO [Deoxycorticosterone] |  |  | 115% | 
C[C@]12C[C@H](O)[C@H]3[C@@H](CCC4=CC(=O)CC[C@@]43C)[C@@H]1CC[C@@H]2C(=O)CO [Corticosterone] |  |  | 112% | 
C[C@]12CC[C@@H](O)C[C@@H]1CC[C@@H]1[C@@H]2CC[C@]2(C)C(=O)CC[C@@H]12 [Androsterone] |  |  | 119% | 
CC(=O)[C@H]1CC[C@H]2[C@@H]3CCC4=CC(=O)CC[C@]4(C)[C@H]3CC[C@]12C [Progesterone] |  |  | 120% | 
CC(=O)C(=O)[O-].[Na+] [sodium pyruvate, Pyruvic acid sodium salt] |  |  |  | BAR Reduction Rate after first dose, Average [3, 10]: 211.4 ppm/hr; BAR Reduction Rate after second dose, Average [3, 10]: 197.9 ppm/hr; BAR Reduction Rate after first dose ([3]; dog, oral, 5 g, first dosing at 266-410 min after ethanol 3 g/kg, sodium salt): 212 ppm/hr and 160 ppm/hr and 253 ppm/hr and 252 ppm/hr; BAR Reduction Rate after second dose ([3]; dog, oral, 10 g, second dosing at 310-464 min, sodium salt): 256 ppm/hr and 230 ppm/hr
O=C(O)CCc1cc(I)c(Oc2ccc(O)c(I)c2)c(I)c1 [3,3′5-triiodothyropropionic acid] | 0.676 units/min | 676% |  | 
O=C(O)Cc1cc(I)c(Oc2ccc(O)c(I)c2)c(I)c1 [3,3′5-triiodothyroacetic acid] | 0.715 units/min | 715% |  | 
O=[N+]([O-])c1ccc(-n2nc(-c3ccccc3)n[n+]2-c2ccc(I)cc2)cc1.[Cl-] [INT] |  |  |  | Effect of INT on oxidation of ethanol and acetaldehyde [4]: enhanced substantially
CCO [Alcohol, ethanol] |  |  |  | Anesthetic effects (BAR) [5]: (0.30-0.40%); Death; LD50 (BAR) [5]: (0.45-0.50%)
CC/C(=C(/CC)c1ccc(O)cc1)c1ccc(O)cc1 [Diethylstilbestrol] |  |  |  | Increase of alcohol dehydrogenase activity ([2]; as low as 10 μM): more than 100%
NC(=O)c1ccc[n+]([C@@H]2O[C@H](COP(=O)([O-])OP(=O)(O)OC[C@H]3O[C@@H](n4cnc5c(N)ncnc54)[C@H](O)[C@@H]3O)[C@@H](O)[C@H]2O)c1 [NAD, Nicotinamide Adenine Dinucleotide (NAD)] |  |  |  | Alcohol oxidation by alcohol dehydrogenase vs. NAD concentration [6]: increases with increasing NAD concentration; Absorbance on addition of NAD [7]: increases the absorbance
SodiumL-aspartate |  |  |  | Effect on oxidation of NADH [8]: substantially increases the oxidation of NADH
O=C(O)CCc1cc(I)c(Oc2cc(I)c(O)c(I)c2)c(I)c1 [3,3,5,5′-tetraiodothyropropionic acid] | 0.75 units/min | 750% |  | 
C[C@]12CCC(=O)C=C1CC[C@@H]1[C@@H]2C(=O)C[C@@]2(C)[C@H]1CC[C@]2(O)C(=O)CO [Cortisone] |  |  | 116% | 
C[C@]12CC[C@H](O)CC1=CC[C@@H]1[C@@H]2CC[C@]2(C)C(=O)CC[C@@H]12 [Dehydroepi-androsterone] |  |  | 200% | 
N[C@@H](Cc1cc(I)c(O)c(I)c1)C(=O)O [3,5-diiodo-l-thyrosine] |  |  |  | Absorbance Change (units/min @ 340 nm) ([1]; Dosage 170 μM): 0.256 units/min; Relative Increase (%) ([1]; Dosage 170 μM): 256%; Absorbance Change (units/min @ 340 nm) ([1]; Dosage 340 μM): 0.36 units/min; Relative Increase (%) ([1]; Dosage 340 μM): 360%
N[C@@H](Cc1cc(Br)c(Oc2ccc(O)c(I)c2)c(Br)c1)C(=O)O [3,5-dibromo-3′-iodo-thyronine] | 0.48 units/min | 480% |  | 
N[C@@H](Cc1cc(I)c(Oc2cc(I)c(O)c(I)c2)c(I)c1)C(=O)O [L-thyroxine, L-Thyroxine] | 0.30 units/min | 300% |  | Increase of enzyme activity ([9]; as little as 2 μM): > 100%; Effect on alcohol and aldehyde dehydrogenases at high dosages ([9]; high dosages): becomes an inhibitor of the enzymes
NC(Cc1ccc(Oc2ccc(O)cc2)cc1)C(=O)O (racemic) [DL-thyronine] | 0.535 units/min | 535% |  | 
O=C([O-])CC(O)C(=O)[O-].[Na+].[Na+] (racemic) [malate, DL-Hydroxybutanedioic acid] |  |  |  | Effect on oxidation of NADH [8]: substantially increases the oxidation of NADH; Relative effectiveness in NADH oxidation ([8]; malate vs. aspartate): more effective than aspartate
